System: MV-4-11 cells
Experiment: Gene expression microarray analysis (Affymetrix PrimeView) and GSEA
Format: cell-based, human
Design: RFU PODN (11730768_x_at) / Fold change /veh PODN (11730768_x_at) / RFU LINC00158 (11744669_a_at) / Fold change /veh LINC00158 (11744669_a_at) / RFU DUSP10 (11751237_a_at) / Fold change /veh DUSP10 (11751237_a_at) / RFU ID3 (11757404_x_at) / Fold change /veh ID3 (11757404_x_at) / RFU PLEKHG5 (11737974_s_at) / Fold change /veh PLEKHG5 (11737974_s_at) / RFU LRRC4B (11730491_at) / Fold change /veh LRRC4B (11730491_at) / RFU GIMAP4 (11747438_a_at) / Fold change /veh GIMAP4 (11747438_a_at) / RFU KRT8 (11758183_x_at) / Fold change /veh KRT8 (11758183_x_at) / RFU CNN1 (11734310_a_at) / Fold change /veh CNN1 (11734310_a_at) / RFU VPS37D (11726825_at) / Fold change /veh VPS37D (11726825_at) / RFU C10orf10 (11716522_x_at) / Fold change /veh C10orf10 (11716522_x_at) / RFU KIR2DL2 /// KIR2DL4 /// KIR2DL5A /// KIR2DL5B /// KIR2DS1 /// KIR2DS2 /// KIR2DS3 /// KIR2DS4 /// KIR3DL3 /// KIR3DL3 /// KIR3DS1 (11738374_at) / Fold change /veh KIR2DL2 /// KIR2DL4 /// KIR2DL5A /// KIR2DL5B /// KIR2DS1 /// KIR2DS2 /// KIR2DS3 /// KIR2DS4 /// KIR3DL3 /// KIR3DL3 /// KIR3DS1 (11738374_at) / RFU C1QL1 (11718748_at) / Fold change /veh C1QL1 (11718748_at) / RFU TMPRSS4 (11747572_a_at) / Fold change /veh TMPRSS4 (11747572_a_at) / RFU HAMP (11756126_x_at) / Fold change /veh HAMP (11756126_x_at) / RFU RNFT2 (11725882_a_at) / Fold change /veh RNFT2 (11725882_a_at) / RFU NR4A2 (11747474_a_at) / Fold change /veh NR4A2 (11747474_a_at) / RFU ABCC12 (11746883_a_at) / Fold change /veh ABCC12 (11746883_a_at) / RFU TMEM136 (11760407_x_at) / Fold change /veh TMEM136 (11760407_x_at) / RFU CLDN22 /// WWC2 (11732394_at) / Fold change /veh CLDN22 /// WWC2 (11732394_at) / RFU HLA-DPB1 (11760878_x_at) / Fold change /veh HLA-DPB1 (11760878_x_at) / RFU SPINT1 (11716480_a_at) / Fold change /veh SPINT1 (11716480_a_at) / RFU GAP43 (11754022_s_at) / Fold change /veh GAP43 (11754022_s_at) / RFU A4GNT (11735810_at) / Fold change /veh A4GNT (11735810_at) / RFU PRB3 (11715151_x_at) / Fold change /veh PRB3 (11715151_x_at) / RFU TUBB4B (11761932_at) / Fold change /veh TUBB4B (11761932_at) / RFU CAPN14 (11732068_a_at) / Fold change /veh CAPN14 (11732068_a_at) / RFU TMCC2 (11721928_a_at) / Fold change /veh TMCC2 (11721928_a_at) / RFU IRGQ (11745062_a_at) / Fold change /veh IRGQ (11745062_a_at) / RFU FAM174B (11720279_a_at) / Fold change /veh FAM174B (11720279_a_at) / RFU TMPRSS4 (11748680_a_at) / Fold change /veh TMPRSS4 (11748680_a_at) / RFU FAM212B (11763350_a_at) / Fold change /veh FAM212B (11763350_a_at) / RFU PLEKHG5 (11743358_a_at) / Fold change /veh PLEKHG5 (11743358_a_at) / RFU ZSCAN30 (11745921_a_at) / Fold change /veh ZSCAN30 (11745921_a_at) / RFU CMKLR1 (11741424_a_at) / Fold change /veh CMKLR1 (11741424_a_at) / RFU LOC101060620 /// MAPK8IP1 (11723275_at) / Fold change /veh LOC101060620 /// MAPK8IP1 (11723275_at) / RFU SPTSSB (11747773_x_at) / Fold change /veh SPTSSB (11747773_x_at) / RFU PRSS12 (11739890_at) / Fold change /veh PRSS12 (11739890_at) / RFU BIN1 (11741810_x_at) / Fold change /veh BIN1 (11741810_x_at) / RFU WNT11 (11732464_a_at) / Fold change /veh WNT11 (11732464_a_at) / RFU C10orf10 (11716521_a_at) / Fold change /veh C10orf10 (11716521_a_at) / RFU C5orf56 (11738089_at) / Fold change /veh C5orf56 (11738089_at) / RFU CYB561 (11721691_x_at) / Fold change /veh CYB561 (11721691_x_at) / RFU ANKRD19P (11752326_a_at) / Fold change /veh ANKRD19P (11752326_a_at) / RFU OR2T12 /// OR2T33 /// OR2T8 (11738714_s_at) / Fold change /veh OR2T12 /// OR2T33 /// OR2T8 (11738714_s_at) / RFU VCAN (11748164_a_at) / Fold change /veh VCAN (11748164_a_at) / RFU JSRP1 (11732532_at) / Fold change /veh JSRP1 (11732532_at) / RFU KRTAP10-11 (11738290_x_at) / Fold change /veh KRTAP10-11 (11738290_x_at) / RFU MYO3A (11730013_a_at) / Fold change /veh MYO3A (11730013_a_at) / RFU EBF3 (11725865_a_at) / Fold change /veh EBF3 (11725865_a_at) / RFU CAMK2N1 (11719241_x_at) / Fold change /veh CAMK2N1 (11719241_x_at) / RFU C5orf56 (11738088_a_at) / Fold change /veh C5orf56 (11738088_a_at) / RFU OLFML3 (11715873_a_at) / Fold change /veh OLFML3 (11715873_a_at) / RFU LOC100653217 /// NTM (11731650_a_at) / Fold change /veh LOC100653217 /// NTM (11731650_a_at) / RFU MAPK11 (11762145_a_at) / Fold change /veh MAPK11 (11762145_a_at) / RFU FIZ1 (11724087_x_at) / Fold change /veh FIZ1 (11724087_x_at) / RFU OASL (11726364_x_at) / Fold change /veh OASL (11726364_x_at) / RFU SOX15 (11748057_x_at) / Fold change /veh SOX15 (11748057_x_at) / RFU CD79A (11719716_a_at) / Fold change /veh CD79A (11719716_a_at) / RFU HIST1H1D (11736915_at) / Fold change /veh HIST1H1D (11736915_at) / RFU CASKIN2 (11723855_a_at) / Fold change /veh CASKIN2 (11723855_a_at) / RFU LOC730098 (11760151_x_at) / Fold change /veh LOC730098 (11760151_x_at) / RFU OR4N2 (11742367_at) / Fold change /veh OR4N2 (11742367_at) / RFU PRRT2 (11749266_a_at) / Fold change /veh PRRT2 (11749266_a_at) / RFU SNX32 (11753110_a_at) / Fold change /veh SNX32 (11753110_a_at) / RFU CDHR5 (11726645_a_at) / Fold change /veh CDHR5 (11726645_a_at) / RFU RCAN1 (11760418_a_at) / Fold change /veh RCAN1 (11760418_a_at) / RFU FAM167A (11723789_a_at) / Fold change /veh FAM167A (11723789_a_at) / RFU FAM26E (11764081_at) / Fold change /veh FAM26E (11764081_at) / RFU ISYNA1 (11749810_s_at) / Fold change /veh ISYNA1 (11749810_s_at) / RFU ACY1 (11761880_at) / Fold change /veh ACY1 (11761880_at) / RFU 11764098_at / Fold change /veh 11764098_at / RFU SAMD14 (11745864_x_at) / Fold change /veh SAMD14 (11745864_x_at) / RFU NPB (11741838_a_at) / Fold change /veh NPB (11741838_a_at) / RFU TMPRSS6 (11731388_a_at) / Fold change /veh TMPRSS6 (11731388_a_at) / RFU KRTAP10-2 (11738614_at) / Fold change /veh KRTAP10-2 (11738614_at) / RFU ARHGAP8 /// PRR5-ARHGAP8 (11727945_x_at) / Fold change /veh ARHGAP8 /// PRR5-ARHGAP8 (11727945_x_at) / RFU KRTAP5-7 /// NADSYN1 (11734609_at) / Fold change /veh KRTAP5-7 /// NADSYN1 (11734609_at) / RFU RASL12 (11751679_a_at) / Fold change /veh RASL12 (11751679_a_at) / RFU CDKN2B (11736163_a_at) / Fold change /veh CDKN2B (11736163_a_at) / RFU PRF1 (11729649_at) / Fold change /veh PRF1 (11729649_at) / RFU, ZNF638 /// ZNF638-IT1 / Fold change vs veh, ZNF638 /// ZNF638-IT1 / RFU, PANK3 / Fold change vs veh, PANK3 / RFU, SH3YL1 / Fold change vs veh, SH3YL1 / RFU, ZEB2 / Fold change vs veh, ZEB2 / RFU, NRIP1 / Fold change vs veh, NRIP1 / RFU, PTTG1IP / Fold change vs veh, PTTG1IP / RFU, CAPN2 / Fold change vs veh, CAPN2 / RFU, MED14 / Fold change vs veh, MED14 / RFU, SNORA58 / Fold change vs veh, SNORA58 / RFU, C1orf63 / Fold change vs veh, C1orf63 / RFU, LRRFIP1 / Fold change vs veh, LRRFIP1 / RFU, NDUFAF7 / Fold change vs veh, NDUFAF7 / RFU, SLC12A2 / Fold change vs veh, SLC12A2 / RFU, IBTK / Fold change vs veh, IBTK / RFU, ESF1 / Fold change vs veh, ESF1 / Fold change vs veh, TMEM50B / RFU, TAOK1 / Fold change vs veh, TAOK1 / RFU, ACBD3 / Fold change vs veh, ACBD3 / RFU, TMA16 / Fold change vs veh, TMA16 / RFU, RWDD3 / Fold change vs veh, RWDD3 / RFU, BCAT1 / Fold change vs veh, BCAT1 / RFU, EDEM3 / Fold change vs veh, EDEM3 / RFU, TMEM33 / Fold change vs veh, TMEM33 / RFU, WDR75 / Fold change vs veh, WDR75 / RFU, AHCTF1 / Fold change vs veh, AHCTF1 / RFU, TFRC / Fold change vs veh, TFRC / RFU, ZDHHC17 / Fold change vs veh, ZDHHC17 / RFU, NOM1 / Fold change vs veh, NOM1 / RFU, ARL8B / Fold change vs veh, ARL8B / RFU, ZBTB11 / Fold change vs veh, ZBTB11 / RFU, TAMM41 / Fold change vs veh, TAMM41 / RFU, KIAA1704 /// LOC100996395 / Fold change vs veh, KIAA1704 /// LOC100996395 / RFU, ING1 / Fold change vs veh, ING1 / RFU, TRMT61B / Fold change vs veh, TRMT61B / RFU, FUBP3 / Fold change vs veh, FUBP3 / RFU, TP53 / Fold change vs veh, TP53 / RFU, TNKS2 / Fold change vs veh, TNKS2 / RFU, ZFP14 / Fold change vs veh, ZFP14 / RFU, ACTR2 / Fold change vs veh, ACTR2 / RFU, PPP3R1 / Fold change vs veh, PPP3R1 / RFU, PIK3R1 / Fold change vs veh, PIK3R1 / RFU, HNRNPA1 / Fold change vs veh, HNRNPA1 / RFU, RNF170 / Fold change vs veh, RNF170 / RFU, ZNF28 / Fold change vs veh, ZNF28 / RFU, RNGTT / Fold change vs veh, RNGTT / RFU, OGT / Fold change vs veh, OGT / RFU, BRD1 / Fold change vs veh, BRD1 / RFU, MARS / Fold change vs veh, MARS / RFU, ZNF655 / Fold change vs veh, ZNF655 / RFU, FAHD1 / Fold change vs veh, FAHD1 / RFU, BDP1 / Fold change vs veh, BDP1 / RFU, LRRCC1 / Fold change vs veh, LRRCC1 / RFU, ARID1A / Fold change vs veh, ARID1A / RFU, ZNF146 / Fold change vs veh, ZNF146 / RFU, ZNF330 / Fold change vs veh, ZNF330 / RFU, GPN3 / Fold change vs veh, GPN3 / RFU, C9orf123 / Fold change vs veh, C9orf123 / RFU, N4BP2L2 / Fold change vs veh, N4BP2L2 / RFU, ARFIP1 / Fold change vs veh, ARFIP1 / RFU, FAM179B / Fold change vs veh, FAM179B / RFU, BCL10 / Fold change vs veh, BCL10 / RFU, UHRF1BP1L / Fold change vs veh, UHRF1BP1L / RFU, BET1 / Fold change vs veh, BET1 / RFU, CNOT2 / Fold change vs veh, CNOT2 / RFU, ZNF268 / Fold change vs veh, ZNF268 / Fold change vs veh, ZNF507 / RFU, DGCR2 / Fold change vs veh, DGCR2 / RFU, WDSUB1 / Fold change vs veh, WDSUB1 / Fold change vs veh, HSP90B1 /// MIR3652 / RFU, ADSS / Fold change vs veh, ADSS / RFU, GK / Fold change vs veh, GK / RFU, ZNF148 / Fold change vs veh, ZNF148 / RFU, TAF9 / Fold change vs veh, TAF9 / RFU, SLC1A5 / Fold change vs veh, SLC1A5 / RFU, SLMO2 / Fold change vs veh, SLMO2 / RFU, ABCC4 / Fold change vs veh, ABCC4 / RFU, LOC101060439 /// RAP1B / Fold change vs veh, LOC101060439 /// RAP1B / RFU, RFX7 / Fold change vs veh, RFX7 / RFU, GTPBP10 / Fold change vs veh, GTPBP10 / RFU, CNEP1R1 / Fold change vs veh, CNEP1R1 / RFU, BIVM-ERCC5 /// ERCC5 / Fold change vs veh, BIVM-ERCC5 /// ERCC5 / RFU, ILF3 / Fold change vs veh, ILF3 / RFU 11762660_at / Fold change /veh 11762660_at / RFU VCAN (11757783_s_at) / Fold change /veh VCAN (11757783_s_at) / RFU DDX43 (11728927_at) / Fold change /veh DDX43 (11728927_at) / RFU KRT8 (11758188_x_at) / Fold change /veh KRT8 (11758188_x_at) / RFU NKD1 (11759106_at) / Fold change /veh NKD1 (11759106_at) / RFU SRD5A1 (11742802_a_at) / Fold change /veh SRD5A1 (11742802_a_at) / RFU TPSAB1 /// TPSB2 (11721975_s_at) / Fold change /veh TPSAB1 /// TPSB2 (11721975_s_at) / RFU GSTM3 (11746129_a_at) / Fold change /veh GSTM3 (11746129_a_at) / RFU IL23R (11737362_x_at) / Fold change /veh IL23R (11737362_x_at) / RFU TMEM51 (11727254_a_at) / Fold change /veh TMEM51 (11727254_a_at) / RFU PIWIL2 (11732686_x_at) / Fold change /veh PIWIL2 (11732686_x_at) / RFU ORM1 (11744905_x_at) / Fold change /veh ORM1 (11744905_x_at) / RFU CCDC152 (11743942_at) / Fold change /veh CCDC152 (11743942_at) / RFU ECM1 (11717891_a_at) / Fold change /veh ECM1 (11717891_a_at) / RFU IL23R (11748794_a_at) / Fold change /veh IL23R (11748794_a_at) / RFU TNFAIP8L3 (11732012_x_at) / Fold change /veh TNFAIP8L3 (11732012_x_at) / RFU MBOAT4 (11741988_at) / Fold change /veh MBOAT4 (11741988_at) / RFU 11764193_at / Fold change /veh 11764193_at / RFU TMEM53 (11763286_at) / Fold change /veh TMEM53 (11763286_at) / RFU MAGEB2 (11727129_at) / Fold change /veh MAGEB2 (11727129_at) / RFU TMEM200A (11744735_a_at) / Fold change /veh TMEM200A (11744735_a_at) / RFU CCDC152 (11751479_a_at) / Fold change /veh CCDC152 (11751479_a_at) / RFU FAM211A (11726209_a_at) / Fold change /veh FAM211A (11726209_a_at) / RFU RGS16 (11746705_a_at) / Fold change /veh RGS16 (11746705_a_at) / RFU VCAN (11755009_s_at) / Fold change /veh VCAN (11755009_s_at) / RFU RHOB (11743442_s_at) / Fold change /veh RHOB (11743442_s_at) / RFU RGS16 (11720943_a_at) / Fold change /veh RGS16 (11720943_a_at) / RFU RGS16 (11720944_at) / Fold change /veh RGS16 (11720944_at) / RFU, VPS4B / Fold change vs veh, VPS4B / RFU, CREB1 / Fold change vs veh, CREB1 / RFU, DNAJC13 / Fold change vs veh, DNAJC13 / RFU, GNAQ / Fold change vs veh, GNAQ / RFU, CDK5R1 / Fold change vs veh, CDK5R1 / RFU, ZRANB3 / Fold change vs veh, ZRANB3 / RFU, CUL4A / Fold change vs veh, CUL4A / RFU, CCNY / Fold change vs veh, CCNY / RFU, UFL1 / Fold change vs veh, UFL1 / RFU, COG3 / Fold change vs veh, COG3 / RFU, DIAPH2 / Fold change vs veh, DIAPH2 / RFU, SKA2 / Fold change vs veh, SKA2 / RFU, AFF3 / Fold change vs veh, AFF3 / RFU, LMF1 / Fold change vs veh, LMF1 / RFU, IPO11 / Fold change vs veh, IPO11 / RFU, DFFB / Fold change vs veh, DFFB / RFU, FOXP1 / Fold change vs veh, FOXP1 / RFU, CARD8 / Fold change vs veh, CARD8 / RFU, STRN3 / Fold change vs veh, STRN3 / RFU, ADK / Fold change vs veh, ADK / RFU, RASSF2 / Fold change vs veh, RASSF2 / RFU, WIPF1 / Fold change vs veh, WIPF1 / RFU, LARP1B / Fold change vs veh, LARP1B / RFU, RASA1 / Fold change vs veh, RASA1 / RFU, RB1 / Fold change vs veh, RB1 / RFU, PPFIA1 / Fold change vs veh, PPFIA1 / RFU, MAT2A / Fold change vs veh, MAT2A / RFU, CCT5 / Fold change vs veh, CCT5 / RFU, WDR92 / Fold change vs veh, WDR92 / RFU, CUX1 / Fold change vs veh, CUX1 / RFU, TTC7A / Fold change vs veh, TTC7A / RFU, TMEM135 / Fold change vs veh, TMEM135 / RFU, DEPTOR / Fold change vs veh, DEPTOR / RFU, CPM / Fold change vs veh, CPM / RFU, DNAJB6 / Fold change vs veh, DNAJB6 / RFU, CACNA2D3 / Fold change vs veh, CACNA2D3 / RFU, DTX4 / Fold change vs veh, DTX4 / RFU, TFCP2 / Fold change vs veh, TFCP2 / RFU, GMCL1 /// GMCL1P1 / Fold change vs veh, GMCL1 /// GMCL1P1 / RFU, AEBP2 / Fold change vs veh, AEBP2 / RFU, SNHG1 /// SNORD22 /// SNORD25 /// SNORD26 /// SNORD27 /// SNORD28 /// SNORD29 /// SNORD31 / Fold change vs veh, SNHG1 /// SNORD22 /// SNORD25 /// SNORD26 /// SNORD27 /// SNORD28 /// SNORD29 /// SNORD31 / Fold change (Aza/veh), C12orf56 (ProbeSet 11735607_a_at) / Fold change (ACY-1035/veh), C12orf56 (ProbeSet 11735607_a_at) / Fold change (Aza/veh), FGFR1OP (ProbeSet 11751329_s_at) / Fold change (ACY-1035/veh), FGFR1OP (ProbeSet 11751329_s_at) / Fold change (Aza/veh), VPS36 (ProbeSet 11739960_a_at) / Fold change (ACY-1035/veh), VPS36 (ProbeSet 11739960_a_at) / RFU SYPL1 (11715823_x_at) / Fold change /veh SYPL1 (11715823_x_at) / RFU IGFBP7 (11715501_s_at) / Fold change /veh IGFBP7 (11715501_s_at) / RFU REEP3 (11722064_at) / Fold change /veh REEP3 (11722064_at) / RFU IGLL1 (11728026_x_at) / Fold change /veh IGLL1 (11728026_x_at): dose or concentration left out as unconfirmed
Conditions: ProbeSet 11749477_a_at; LIST B

With `Nc1ccc(-c2cccs2)cc1NC(=O)c1ccc2c(c1)cc(C1CC1)n2CCN1CCOCC1` [ACY-1035] as the molecule, how does the “Fold change vs veh, EDEM3” value read?
Its value is 0.94.

Source: publication PMC5218480 (PLoS ONE, 2017)
